Results: patent USRE50082E1, “(5,6-dihydro)pyrimido[4,5-e]indolizines” (NETHERLANDS TRANSLATIONAL RESEARCH CENTER B.V., priority 2014, dated 2024)

What follows are compounds tested on MOLT-4 cancer cell line (assay: Cell proliferation assay, MOLT-4 cancer cell line (ATPlite)). Conditions: Homo sapiens, MOLT-4; 72 hours incubation, ATPlite 1Step; read-out: IC50 MOLT-4 cell proliferation.
Type: cell-based
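Note: luminescence read-out, percent growth versus compound-free DMSO wells as maximum growth, start-of-incubation signal separating growth from cell death, IC50 from logistic curve fit.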

Row | Structure (SMILES) | IC50 [nM]
1 | COc1cc(OC2CCN(C)CC2)ccc1Nc1ncc2c(n1)-n1ccc(C(=O)Nc3c(C)cccc3C)c1CC2 [Example 39, N-(2,6-dimethylphenyl)-2-[2-methoxy-4-[(1-methyl-4-piperidyl)oxy]anilino]-5,6-dihydropyrimido[4,5-e]indolizine-7-carboxamide] | < 50
2 | CCc1cccc(C)c1NC(=O)c1ccn2c1CCc1cnc(Nc3ccc(OC4CCN(C)CC4)cc3OC)nc1-2 [Example 40, N-(2-ethyl-6-methyl-phenyl)-2-[2-methoxy-4-[(1-methyl-4-piperidyl)oxy]anilino]-5,6-dihydropyrimido[4,5-e]indolizine-7-carboxamide] | < 50
3 | COc1cc(OC2CCN(C)CC2)ccc1Nc1ncc2c(n1)-n1ccc(C(=O)Nc3c(C)cccc3Br)c1CC2 [Example 42, N-(2-bromo-6-methyl-phenyl)-2-[2-methoxy-4-[(1-methyl-4-piperidyl)oxy]anilino]-5,6-dihydropyrimido[4,5-e]indolizine-7-carboxamide] | < 50
4 | CCc1cccc(CC)c1NC(=O)c1ccn2c1CCc1cnc(Nc3ccc(OC4CCN(C)CC4)cc3OC)nc1-2 [Example 43, N-(2,6-diethylphenyl)-2-[2-methoxy-4-[(1-methyl-4-piperidyl)oxy]anilino]-5,6-dihydropyrimido[4,5-e]indolizine-7-carboxamide] | < 50
5 | COCCn1nc(C)c(NC(=O)c2ccn3c2CCc2cnc(Nc4ccc(OC5CCN(C)CC5)cc4OC)nc2-3)c1C [Example 44, N-[1-(2-methoxyethyl)-3,5-dimethyl-pyrazol-4-yl]-2-[2-methoxy-4-[(1-methyl-4-piperidyl)oxy]anilino]-5,6-dihydropyrimido[4,5-e]indolizine-7-carboxamide] | 50 to 150
6 | Cc1cc(N2CCOCC2)ccc1Nc1ncc2c(n1)-n1ccc(C(=O)Nc3c(C)cccc3C)c1CC2 [Example 56, N-(2,6-dimethylphenyl)-2-(2-methyl-4-morpholino-anilino)-5,6-dihydropyrimido[4,5-e]indolizine-7-carboxamide] | < 50
7 | Cc1cc(N2CCNCC2)ccc1Nc1ncc2c(n1)-n1ccc(C(=O)Nc3c(C)cccc3C)c1CC2 [Example 58, N-(2,6-dimethylphenyl)-2-(2-methyl-4-piperazin-1-yl-anilino)-5,6-dihydropyrimido[4,5-e]indolizine-7-carboxamide] | < 50
8 | COc1cc(OC2CCN(C)CC2)ccc1Nc1ncc2ccc3c(C(=O)Nc4c(C)cccc4C)ccn3c2n1 [Example 62, N-(2,6-dimethylphenyl)-2-[2-methoxy-4-[(1-methyl-4-piperidyl)oxy]anilino]pyrimido[4,5-e]indolizine-7-carboxamide] | < 50
9 | CCc1cccc(C)c1NC(=O)c1ccn2c1CCc1cnc(Nc3ccc(N4CCN(C)CC4)cc3C)nc1-2 [Example 64, N-(2-ethyl-6-methyl-phenyl)-2-[2-methyl-4-(4-methylpiperazin-1-yl)anilino]-5,6-dihydropyrimido[4,5-e]indolizine-7-carboxamide] | < 50
10 | CCc1cccc(CC)c1NC(=O)c1ccn2c1CCc1cnc(Nc3ccc(N4CCN(C)CC4)cc3C)nc1-2 [Example 67, N-(2,6-diethylphenyl)-2-[2-methyl-4-(4-methylpiperazin-1-yl)anilino]-5,6-dihydropyrimido[4,5-e]indolizine-7-carboxamide] | < 50
11 | CCc1cccc(C)c1NC(=O)c1ccn2c1CCc1cnc(Nc3ccc(N4CCN(C)CC4)cc3OC)nc1-2 [Example 72, N-(2-ethyl-6-methyl-phenyl)-2-[2-methoxy-4-(4-methylpiperazin-1-yl)anilino]-5,6-dihydropyrimido[4,5-e]indolizine-7-carboxamide] | < 50
12 | COc1cc(N2CCNCC2)ccc1Nc1ncc2c(n1)-n1ccc(C(=O)Nc3c(C)cccc3Cl)c1CC2 [Example 75, N-(2-chloro-6-methyl-phenyl)-2-(2-methoxy-4-piperazin-1-yl-anilino)-5,6-dihydropyrimido[4,5-e]indolizine-7-carboxamide] | < 50
13 | CCc1cccc(CC)c1NC(=O)c1ccn2c1CCc1cnc(Nc3ccc(N4CCNCC4)cc3OC)nc1-2 [Example 76, N-(2,6-diethylphenyl)-2-(2-methoxy-4-piperazin-1-yl-anilino)-5,6-dihydropyrimido[4,5-e]indolizine-7-carboxamide] | < 50

More lines, now with the values ahead:

Row | IC50 [nM] | Structure (SMILES)
14 | < 50 | Cc1cccc(C)c1NC(=O)c1ccn2c1CCc1cnc(Nc3ccc(C(=O)NC4CCN(C)CC4)cc3OC(F)F)nc1-2 [Example 37, 2-[2-(Difluoromethoxy)-4-[(1-methyl-4-piperidyl)carbamoyl]anilino]-N-(2,6-dimethylphenyl)-5,6-dihydropyrimido[4,5-e]indolizine-7-carboxamide]
15 | 50 to 150 | CCc1cccc(CC)c1NC(=O)c1ccn2c1CCc1cnc(Nc3ccc(-c4cnn(C)c4)cc3OC)nc1-2 [Example 38, N-(2,6-diethylphenyl)-2-[2-methoxy-4-(1-methylpyrazol-4-yl)anilino]-5,6-dihydropyrimido[4,5-e]indolizine-7-carboxamide]
16 | < 50 | COc1cc(OC2CCN(C)CC2)ccc1Nc1ncc2c(n1)-n1ccc(C(=O)Nc3c(C)cccc3Cl)c1CC2 [Example 41, N-(2-chloro-6-methyl-phenyl)-2-[2-methoxy-4-[(1-methyl-4-piperidyl)oxy]anilino]-5,6-dihydropyrimido[4,5-e]indolizine-7-carboxamide]
17 | < 50 | Cc1cc(OC2CCN(C)CC2)ccc1Nc1ncc2c(n1)-n1ccc(C(=O)Nc3c(C)cccc3Cl)c1CC2 [Example 46, N-(2-chloro-6-methyl-phenyl)-2-[2-methyl-4-[(1-methyl-4-piperidyl)oxy]anilino]-5,6-dihydropyrimido[4,5-e]indolizine-7-carboxamide]
18 | < 50 | CCc1n[nH]c(CC)c1NC(=O)c1ccn2c1CCc1cnc(Nc3ccc(OC4CCN(C)CC4)cc3C)nc1-2 [Example 47, N-(3,5-diethyl-1H-pyrazol-4-yl)-2-[2-methyl-4-[(1-methyl-4-piperidyl)oxy]anilino]-5,6-dihydropyrimido[4,5-e]indolizine-7-carboxamide]
19 | < 50 | COc1cc(OCCN(C)C)ccc1Nc1ncc2c(n1)-n1ccc(C(=O)Nc3c(C)cccc3Br)c1CC2 [Example 51, N-(2-bromo-6-methyl-phenyl)-2-[4-(2-dimethylaminoethyloxy)-2-methoxy-anilino]-5,6-dihydropyrimido[4,5-e]indolizine-7-carboxamide]
20 | 50 to 150 | CCc1cccc(CC)c1NC(=O)c1ccn2c1CCc1cnc(Nc3ccc(OCCN(C)C)cc3OC)nc1-2 [Example 52, N-(2,6-diethylphenyl)-2-[4-(2-dimethylaminoethyloxy)-2-methoxy-anilino]-5,6-dihydropyrimido[4,5-e]indolizine-7-carboxamide]
21 | 50 to 150 | CCc1n[nH]c(CC)c1NC(=O)c1ccn2c1CCc1cnc(Nc3ccc(OCCN(C)C)cc3OC)nc1-2 [Example 53, N-(3,5-diethyl-1H-pyrazol-4-yl)-2-[4-(2-dimethylaminoethyloxy)-2-methoxy-anilino]-5,6-dihydropyrimido[4,5-e]indolizine-7-carboxamide]
22 | < 50 | CCc1cccc(CC)c1NC(=O)c1ccn2c1CCc1cnc(Nc3ccc(OC4CCN(C)C4)cc3OC)nc1-2 (stereo not shown) [Example 59, N-(2,6-diethylphenyl)-2-[2-methoxy-4-(1-methylpyrrolidin-3-yl)oxy-anilino]-5,6-dihydropyrimido[4,5-e]indolizine-7-carboxamide]
23 | < 50 | COc1cc(N2CCN(C)CC2)ccc1Nc1ncc2c(n1)-n1ccc(C(=O)Nc3c(Cl)cccc3Cl)c1CC2 [Example 61, N-(2,6-dichlorophenyl)-2-[2-methoxy-4-(4-methylpiperazin-1-yl)anilino]-5,6-dihydropyrimido[4,5-e]indolizine-7-carboxamide]
24 | < 50 | Cc1cc(N2CCN(C)CC2)ccc1Nc1ncc2c(n1)-n1ccc(C(=O)Nc3c(C)cccc3C)c1CC2 [Example 63, N-(2,6-dimethylphenyl)-2-[2-methyl-4-(4-methylpiperazin-1-yl)anilino]-5,6-dihydropyrimido[4,5-e]indolizine-7-carboxamide]
25 | < 50 | Cc1cc(N2CCN(C)CC2)ccc1Nc1ncc2c(n1)-n1ccc(C(=O)Nc3c(C)cccc3Br)c1CC2 [Example 65, N-(2-bromo-6-methyl-phenyl)-2-[2-methyl-4-(4-methylpiperazin-1-yl)anilino]-5,6-dihydropyrimido[4,5-e]indolizine-7-carboxamide]
26 | < 50 | Cc1cc(N2CCN(C)CC2)ccc1Nc1ncc2c(n1)-n1ccc(C(=O)Nc3c(Cl)cccc3Cl)c1CC2 [Example 66, N-(2,6-dichlorophenyl)-2-[2-methyl-4-(4-methylpiperazin-1-yl)anilino]-5,6-dihydropyrimido[4,5-e]indolizine-7-carboxamide]
27 | < 50 | Cc1cccc(C)c1NC(=O)c1ccn2c1CCc1cnc(Nc3ccc(N4CCOCC4)nc3C)nc1-2 [Example 68, N-(2,6-dimethylphenyl)-2-[(2-methyl-6-morpholino-3-pyridyl)amino]-5,6-dihydropyrimido[4,5-e]indolizine-7-carboxamide]
28 | < 50 | Cc1cccc(Br)c1NC(=O)c1ccn2c1CCc1cnc(Nc3ccc(N4CCOCC4)nc3C)nc1-2 [Example 70, N-(2-bromo-6-methyl-phenyl)-2-[(2-methyl-6-morpholino-3-pyridyl)amino]-5,6-dihydropyrimido[4,5-e]indolizine-7-carboxamide]
29 | < 50 | CCc1cccc(CC)c1NC(=O)c1ccn2c1ccc1cnc(Nc3ccc(N4CCN(C)CC4)cc3OC)nc12 [Example 71, N-(2,6-diethylphenyl)-2-[2-methoxy-4-(4-methylpiperazin-1-yl)anilino]pyrimido[4,5-e]indolizine-7-carboxamide]
30 | < 50 | COc1cc(N2CCN(C)CC2)ccc1Nc1ncc2c(n1)-n1ccc(C(=O)Nc3c(C)cccc3Br)c1CC2 [Example 73, N-(2-bromo-6-methyl-phenyl)-2-[2-methoxy-4-(4-methylpiperazin-1-yl)anilino]-5,6-dihydropyrimido[4,5-e]indolizine-7-carboxamide]
31 | 50 to 150 | CCc1cccc(CC)c1NC(=O)c1ccn2c1ccc1cnc(Nc3ccc(N4CCNCC4)cc3OC)nc12 [Example 77, N-(2,6-diethylphenyl)-2-(2-methoxy-4-piperazin-1-yl-anilino)pyrimido[4,5-e]indolizine-7-carboxamide]
